Data as given in ChEMBL document CHEMBL1201862, “PubChem BioAssay data set” (2004).
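Each compound was tested at five concentrations against cells in 96-well plates for 48 hours. GI50 = concentration required for 50% inhibition of growth.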 The source made the active and inactive calls. Rule as the data show it: active = GI50 up to about 1.1 µM and inactive = higher.

Tests used:
Experiment in all cases: growth of human tumour cells (NCI), 48 h
[1] = test system: IGROV-1
[2] = test system: HCT-15
[3] = test system: OVCAR-3
[4] = test system: SF-295
[5] = test system: K562
[6] = test system: SK-OV-3
[7] = test system: COLO 205
[8] = test system: SK-MEL-28
[9] = test system: A549
[10] = test system: MDA-N
[11] = test system: RPMI-8226
[12] = test system: SF-539
[13] = test system: HL-60
[14] = test system: SK-MEL-2
[15] = test system: NCI-H460
[16] = test system: BT-549
[17] = test system: HT-29
[18] = test system: NCI-H23
[19] = test system: HOP-62
[20] = test system: MCF7
[21] = test system: MDA-MB-231
[22] = test system: NCI-H226
[23] = test system: UACC-62
[24] = test system: KM12
[25] = test system: 786-0
[26] = test system: ACHN
[27] = test system: RXF 393
[28] = test system: SR
[29] = test system: SN12C
[30] = test system: OVCAR-8
[31] = test system: UO-31
[32] = test system: T47D
[33] = test system: NCI/ADR-RES
[34] = test system: HCT-116
[35] = test system: TK-10
[36] = test system: SW-620
[37] = test system: U-251
[38] = test system: OVCAR-4
[39] = test system: OVCAR-5
[40] = test system: M14
[41] = test system: MOLT-4
[42] = test system: SNB-19
[43] = test system: UACC-257
[44] = test system: Hs-578T
[45] = test system: DU-145
[46] = test system: CAKI-1
[47] = test system: HOP-92
[48] = test system: MDA-MB-435
[49] = test system: EKVX
[50] = test system: CCRF-CEM
[51] = test system: NCI-H522
[52] = test system: LOX IMVI
[53] = test system: Malme-3M
[54] = test system: PC-3
[55] = test system: A498
[56] = test system: SK-MEL-5
[57] = test system: SF-268
[58] = test system: SNB-75

Compound: O=S(=O)(c1ccc(I)cc1)N(c1ccccc1)S(=O)(=O)C(F)(F)C(F)(F)C(F)(F)C(F)(F)F
- GI50 [1]: > 100 µM (inactive)
- GI50 [2]: 41.2 µM
- GI50 [3]: 22.6 µM (inactive)
- GI50 [4]: 24 µM (inactive)
- GI50 [5]: 41.6 µM (inactive)
- GI50 [6]: 26.4 µM (inactive)
- GI50 [7]: 40 µM (inactive)
- GI50 [8]: 40.6 µM (inactive)
- GI50 [9]: 31.5 µM (inactive)
- GI50 [10]: 60.1 µM (inactive)
- GI50 [11]: 42.7 µM (inactive)
- GI50 [12]: 35.6 µM (inactive)
- GI50 [13]: 97.7 µM (inactive)
- GI50 [14]: 29.2 µM (inactive)
- GI50 [15]: 31.9 µM (inactive)
- GI50 [16]: > 100 µM (inactive)
- GI50 [17]: 22.4 µM (inactive)
- GI50 [18]: 43.2 µM (inactive)
- GI50 [19]: 24.3 µM (inactive)
- GI50 [20]: 26.9 µM (inactive)
- GI50 [21]: 23 µM (inactive)
- GI50 [22]: 22.9 µM (inactive)
- GI50 [23]: 25.5 µM (inactive)
- GI50 [24]: 18.8 µM (inactive)
- GI50 [25]: 45.7 µM (inactive)
- GI50 [26]: 58.2 µM (inactive)
- GI50 [27]: 24.8 µM (inactive)
- GI50 [28]: 56.5 µM (inactive)
- GI50 [29]: > 100 µM (inactive)
- GI50 [30]: 48 µM (inactive)
- GI50 [31]: 55.8 µM (inactive)
- GI50 [32]: 35.5 µM (inactive)
- GI50 [33]: 43.3 µM (inactive)
- GI50 [34]: 19.9 µM (inactive)
- GI50 [35]: 14.2 µM (inactive)
- GI50 [36]: 34.7 µM (inactive)
- GI50 [37]: 75.2 µM (inactive)
- GI50 [38]: 24.5 µM (inactive)
- GI50 [39]: 24.9 µM (inactive)
- GI50 [40]: 34.8 µM (inactive)
- GI50 [41]: 39.4 µM (inactive)
- GI50 [42]: 74.3 µM (inactive)
- GI50 [43]: > 100 µM (inactive)
- GI50 [44]: 30.2 µM (inactive)
- GI50 [45]: 46.7 µM (inactive)
- GI50 [46]: 34.1 µM (inactive)
- GI50 [47]: 15.4 µM (inactive)
- GI50 [48]: > 100 µM (inactive)
- GI50 [49]: 40.8 µM (inactive)
- GI50 [50]: 40.9 µM (inactive)
- GI50 [51]: 28.2 µM (inactive)
- GI50 [52]: 96.2 µM (inactive)
- GI50 [53]: 18.6 µM (inactive)
- GI50 [54]: 38.7 µM (inactive)

Compound: c1ccc(C2=NNC3c4ccccc4-c4ccccc4N3C2)cc1 (stereo unspecified)
- GI50 [1]: 31.6 µM (inactive)
- GI50 [2]: 48.4 µM
- GI50 [3]: 37.5 µM (inactive)
- GI50 [4]: 35.6 µM (inactive)
- GI50 [5]: 23.9 µM (inactive)
- GI50 [6]: 46.6 µM (inactive)
- GI50 [7]: 18.4 µM (inactive)
- GI50 [8]: 35.6 µM (inactive)
- GI50 [9]: 32.7 µM (inactive)
- GI50 [10]: 33.5 µM (inactive)
- GI50 [55]: 30 µM (inactive)
- GI50 [11]: 19 µM (inactive)
- GI50 [12]: 22.4 µM (inactive)
- GI50 [13]: 2.08 µM (inactive)
- GI50 [14]: 20.1 µM (inactive)
- GI50 [15]: 21.9 µM (inactive)
- GI50 [16]: 33.3 µM (inactive)
- GI50 [17]: 39.5 µM (inactive)
- GI50 [18]: 26.1 µM (inactive)
- GI50 [19]: 46.1 µM (inactive)
- GI50 [20]: 14.7 µM (inactive)
- GI50 [21]: 26 µM (inactive)
- GI50 [22]: 26.9 µM (inactive)
- GI50 [23]: 16.4 µM (inactive)
- GI50 [24]: 37.1 µM (inactive)
- GI50 [25]: 50 µM (inactive)
- GI50 [26]: 31.8 µM (inactive)
- GI50 [27]: 40 µM (inactive)
- GI50 [28]: 21.1 µM (inactive)
- GI50 [29]: 35.3 µM (inactive)
- GI50 [30]: 33.8 µM (inactive)
- GI50 [31]: 32.4 µM (inactive)
- GI50 [32]: 23.5 µM (inactive)
- GI50 [33]: 31.8 µM (inactive)
- GI50 [34]: 34 µM (inactive)
- GI50 [56]: 15.9 µM (inactive)
- GI50 [35]: 33.7 µM (inactive)
- GI50 [36]: 33.4 µM (inactive)
- GI50 [37]: 26.5 µM (inactive)
- GI50 [38]: 37.9 µM (inactive)
- GI50 [39]: 99.8 µM (inactive)
- GI50 [40]: 29.2 µM (inactive)
- GI50 [41]: 20 µM (inactive)
- GI50 [57]: 44.9 µM (inactive)
- GI50 [42]: 40 µM (inactive)
- GI50 [43]: 27.2 µM (inactive)
- GI50 [58]: 21.9 µM (inactive)
- GI50 [44]: 34.8 µM (inactive)
- GI50 [45]: 40.5 µM (inactive)
- GI50 [46]: 43 µM (inactive)
- GI50 [47]: 52.5 µM (inactive)
- GI50 [48]: 27.8 µM (inactive)
- GI50 [49]: 35.5 µM (inactive)
- GI50 [51]: 26.1 µM (inactive)
- GI50 [52]: 28.6 µM (inactive)
- GI50 [53]: 30.3 µM (inactive)
- GI50 [54]: 23.7 µM (inactive)
